According to patent US20250375416A1, “SERINE PROTEASE INHIBITORY EFFECTS OF HEALTH SUPPLEMENTS IN HUMAN CANCEROUS CELL LINES” (priority 2022, published 2025):

What was measured:
[1] = biological target: T1, Trypsin (Sus scrofa, UniProt P00761); assay: Trypsin inhibition by health supplements in confluent A549 cells (cell detachment, crystal violet staining, microscopy); type: cell-based; settings: for concentration at end point dilution of trypsin inhibition: FIG. 11, 0.125% trypsin, serial dilutions in 24 well plate; for concentration at end point of trypsin inhibitory effects: FIG. 13, cell morphology under microscope vs cell and trypsin control
T1 construct: purchased Gibco Lot no-2455123
T1 sequence (P00761 9-231): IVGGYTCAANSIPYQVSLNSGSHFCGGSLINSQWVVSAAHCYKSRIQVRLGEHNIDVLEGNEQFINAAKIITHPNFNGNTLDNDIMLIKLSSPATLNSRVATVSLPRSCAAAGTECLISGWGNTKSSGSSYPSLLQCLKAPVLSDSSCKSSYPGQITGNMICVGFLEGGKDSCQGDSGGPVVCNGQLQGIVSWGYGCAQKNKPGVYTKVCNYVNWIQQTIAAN
Description: In a preferred embodiment, supplements are diluted two to five-fold dilutions (where ever necessary) in PBS (pH 7.4) either as single component and/or various combinations and tested in cell lines grown in either 6, 12, 24 and/or 48 well plates. Cell (CC) and trypsin control (TC) were kept as protease negative and positive indicators in every experiment. Trypsin-EDTA (Gibco Lot no-2455123, Canada) was added into all wells (0.125%) expect cell control wells.
(§1) Fluids from the plate was discarded and washed twice with PBS. Following wash the plate was stained with 1% crystal violet in […] at room temperature for 5 minutes. Following incubation, crystal violet from each well was discarded and washed two to three times with PBS and removed any excess dye from each well.
(§2) Health supplements were collected from pharmaceutical laboratory and were randomly screened in one of the lungs cancer cell lines called A549 for their protease inhibitory effects. Cells were cultivated in 6 well plate using standard technique until confluent. Once the plate is ready, culture media from each well were removed and washed two times with PBS. Following wash, 500 μl of supplements at appropriate dilutions were added into well followed by 500 μl of trypsin (0.25%) to each well except the well having cell control (CC). Plate was incubated at 37° C. and checked at every 5 minutes to see the effect of trypsin on cell morphology. Once cells in trypsin control well lift off from the surface, discard fluid from all wells, wash two times with PBS and stained cells by 1% crystal violet (in alcohol) for two-three minutes. Following staining wells were washed 2-3 times with PBS in order to remove excess dye and finally checked the cell morphology using inverted microscope as well as by naked eye (FIG. 7, 8).
A further experiment was conducted using serine proteases (Trypsin and Elastase) against two formulations of health supplements such as Vitamin C and combination Vitamins C (PC Drug Center Ltd, Bangkok, Thailand) with Thiamine (B1-Roche, lot no: 8077395)) and Pyridoxine (B6, Roche, lot no: 8079496). This formulation of three vitamins is designed as tbc and experiment was conducted in six well plate with confluent A549 cells using technique described in [0044].
The end point of trypsin inhibition of each supplement was calculated in terms of μg/ml. The cell morphologies were also observed by under inverted microscope (4×10) and are shown FIG. 12-15.

[2] = biological target: T2, Elastase (Sus scrofa, UniProt P00772); assay: Elastase inhibition by health supplements in confluent A549 cells (cell detachment, crystal violet staining, microscopy); type: cell-based
T2 construct: purchased SIGMA E017-5 mg
T2 sequence (P00772 27-266): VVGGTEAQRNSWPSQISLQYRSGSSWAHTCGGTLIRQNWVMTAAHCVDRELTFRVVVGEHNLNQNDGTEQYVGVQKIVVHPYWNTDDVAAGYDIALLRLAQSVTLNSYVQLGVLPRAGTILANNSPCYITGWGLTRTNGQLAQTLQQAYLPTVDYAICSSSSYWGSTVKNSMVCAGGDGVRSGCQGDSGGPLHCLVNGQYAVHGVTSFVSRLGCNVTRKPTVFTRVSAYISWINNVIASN
Description: as §1
In a solution of the preferred inhibitor of the present invention in which the inhibitor and trypsin are present in a concentration greater 0.355 mM verses 0.524 mM such inhibitor would react >95% of an equivalent molecular amount of trypsin.
as §2, with “Following staining wells were washed 2-3 times with PBS in order to remove excess dye and finally checked the cell morphology using inverted microscope as well as by naked eye (FIG. 7, 8).” left out

[3] = FIG. 12, trypsin at 1.25% concentration, microscopy

O=C1O[C@H]([C@@H](O)CO)C(O)=C1O [AC-1, Ascorbic acid]
concentration at end point dilution of trypsin inhibition [1]: 0.25%
concentration efficiently neutralizing catalytic activities of trypsin [1, 3]: 0.25%
concentration from which capability of neutralization of trypsin starts to be lost [1, 3]: 0.125%

Cc1ncc(C[n+]2csc(CCO)c2C)c(N)n1 [B1, Thiamine]
concentration at end point dilution of trypsin inhibition [1]: 1.0%
concentration at end point of trypsin inhibitory effects [1]: 1.0%

Cc1ncc(CO)c(CO)c1O [B6, Pyridoxine]
concentration at end point dilution of trypsin inhibition [1]: 0.5%
concentration at end point of trypsin inhibitory effects [1]: 0.5%

O=C1O[C@H]([C@@H](O)CO)C(O)=C1O [vitamin C, Ascorbic acid]
inhibition of enzymatic activities of Trypsin (T) ([1]; FIG. 7, A549 cells, compared with cell control (CC) and trypsin control (TC)): showed inhibitions of enzymatic activities
level of inhibition against trypsin ([1]; FIG. 9, A549, six well plate, 1.25% trypsin, Ascorbic acid 2.5% alone or tbc (Ascorbic acid 2.5%, Thiamine 0.1%, Pyridoxine 0.15%)): good level of inhibition
inhibition of enzymatic activities of Elastase (E) ([2]; FIG. 7, A549 cells, compared with cell control (CC) and elastase control (EC)): showed inhibitions of enzymatic activities
level of inhibition against elastase ([2]; FIG. 9, A549, six well plate, 0.5% elastase, Ascorbic acid 2.5% alone or tbc (Ascorbic acid 2.5%, Thiamine 0.1%, Pyridoxine 0.15%)): good level of inhibition
